Earlier results, collected in patent US6391332B1, “Therapeutic micronutrient composition for severe trauma, burns and critical illness” (Baxter International, Inc., priority 2000, dated 2002).

Columns and labels:
critically ill patients = settings: glutamine supplementation, clinical trials
burn patients = settings: 2-10 grams given during burn resuscitation
[1] = doses exceeding 40 grams a day

For `NC(=O)CC[C@H](N)C(=O)O` [glutamine, L-glutamine], the infection rate (critically ill patients) is given as “decreased infection rate”.
For `O=C1O[C@H]([C@@H](O)CO)C(O)=C1O` [ascorbic acid], the “vascular permeability and fluid requirements” value (burn patients) is listed as “significantly decrease”.
In the case of `N=C(N)NCCC[C@H](N)C(=O)O` [arginine, L-arginine], the toxicity [1] is given as “non-toxic”.
